The values that follow are results of earlier work, collected in patent publication US20130178495A1, “IBUDILAST FOR RELIEVING NEGATIVE EFFECTS OF MEDICATION OVERUSE HEADACHE” (MediciNova, Inc., priority 2011, published 2013).

For data set [1] the following is noted: single patient, 20 mg per day of ibudilast.
The conditions of data set [2]: rat, bilateral indwelling catheters between the meninges and the skull.

Consider `CC(C)C(=O)c1c(C(C)C)nn2ccccc12` [ibudilast], for which the “frequency and intensity of migraine” value in data set [1] (migraine on the right side continued) is reported as “decreased”. Also, the daily headaches result in data set [1] (no control) is given as “disappeared in one week”. Also, in data set [2], the facial allodynia entry is “blocked and reversed facial allodynia”.
